From patent US20150320705A1, “METHOD OF INHIBITING OR TREATING AMYOTROPHIC LATERAL SCLEROSIS WITH PHENOXYALKYLCARBOXYLIC ACIDS” (priority 2014, published 2015)

Assays:
SOD deficient flies = type: in vivo, Drosophila; settings: flies with interfered SOD gene, MN-001 tested at 0.08 mM, 0.8 mM, 8 mM (DMSO), FIG. 3
Description: Drosophila males will be collected and keep on fly food for 24 h. Then flies will be transferred to vials containing 3-mm paper filter disks saturated with 250 μl of 1% sucrose containing 2 mM paraquat or 1% sucrose, 2 mM paraquat and the tested compound. The vials will be stored at 25° C. in the dark, and flies are enumerated after 24 h.
Three replicas for each concentration will be performed in the same day and three replicas of the assay will be performed in different days.
The experiment includes the analysis of four compound concentrations (10, 100, 250 and 1000 μM) and will evaluate 360 flies for each concentration (8 replicates×3 days with 15 flies each one). Resistance to paraquat treatment will be indicative of positive activity of the compound tested. See, FIG. 2.
MN-001 was tested at concentrations of 0.08 mM, 0.8 mM, 8 mM (DMSO).

VAPB Drosophila mutants = experiment: Evaluation of anti-ALS activity on VAPB Drosophila mutants (viability); type: in vivo; settings: VAPB mutant flies; for adult flies observed from seeded larvae: 3 replicates for riluzole and vitamin D (45 larvae seeded), 8 for MN-001 (120 larvae seeded)

Question: What does the source list for `CCCc1c(SCCCOc2ccc(C(C)=O)c(OCCCC(=O)O)c2CCC)ccc(C(C)=O)c1O` [MN-001]?
Answer: survival (or survivorship) percentages after paraquat exposure (SOD deficient flies): increased this survival in a dose dependent manner; adult flies observed from seeded larvae (VAPB Drosophila mutants): 5 of 8 wells displayed adults but only 1 adult in each of them; viability (VAPB Drosophila mutants; compared with DMSO): increase viability in a statistically significant manner

Question: vitamin E was tested. Which “survival (or survivorship) percentages after paraquat exposure” value (SOD deficient flies) did it give?
Answer: increased this percentage

Question: vitamin D was tested. Which “adult flies observed from seeded larvae” value (VAPB Drosophila mutants) did it give?
Answer: 1 adult was observed in one of the 3 replicates

Question: Which “adult flies observed from seeded larvae” value (VAPB Drosophila mutants) does the source give for `Nc1nc2ccc(OC(F)(F)F)cc2s1` [riluzole] here?
Answer: No adult flies were observed
